Starred links: 1 amine or outer side, 2 acyl side, 3 side chain; linkers in the order of their positions; H or OH if unused. Residues, ends and D or L forms follow the SMILES beside them. *: point of attachment. pNA = O=[N+]([O-])c1ccc(N*)cc1; Suc = O=C(CCC(=O)[*:2])[*:1]
How the values were obtained:
Assay in all cases: Hydrolysis of peptide p-nitroanilide substrate, kinetic constants
Assay type in all cases: biochemical
[1] = molecular target: T1, Subtilisin Carlsberg, native (pure subtilisin standard) (Bacillus licheniformis, UniProt P00780)
T1 construct: purchased Sigma Chemical Co
T1 sequence (P00780 106-379): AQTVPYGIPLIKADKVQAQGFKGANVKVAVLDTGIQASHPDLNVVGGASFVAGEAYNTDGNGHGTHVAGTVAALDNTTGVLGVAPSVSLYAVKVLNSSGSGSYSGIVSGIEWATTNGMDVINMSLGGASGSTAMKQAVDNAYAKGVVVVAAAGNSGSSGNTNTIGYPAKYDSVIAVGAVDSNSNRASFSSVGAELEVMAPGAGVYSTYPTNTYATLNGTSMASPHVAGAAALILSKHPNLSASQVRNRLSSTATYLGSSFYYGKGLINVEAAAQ
Experimental: (§1) Kinetic studies of the modified protein were performed using substrate (N-succinyl-L-alanyl-L-alanyl-L-prolyl-L-phenylalanyl p-nitroanilide) in 0.1M Tris-HCl buffer, pH 8.6. The purified HPLC fractions (three total) were tested for activity while increasing the substrate concentrations in equal increments. Substrate concentration versus rate was plotted to determine Vmax and Km using non-linear regression analysis. A standard of pure subtilisin was analyzed as a control.
(§2) As set forth above, the activity of the modified enzymes was assessed with the artificial peptide substrate succinyl-L-alanyl-L-alanyl-L-prolyl-L-phenylalanyl p-nitroanilide. A sample of 30 mg modified protein powder was dissolved in tetrahydrofuran, and filtered with a solvent resistant 0.22 μm filter in order to remove the insoluble native protein. The solvent was evaporated and, as mentioned above, values for Vmax and Km were determined.

[2] = molecular target: T2, Subtilisin Carlsberg, doubly modified with PEG monomethacrylate (MW 8,000) (Bacillus licheniformis, UniProt P00780)
T2 construct: purchased Sigma Chemical Co
T2 sequence (P00780 106-379): T1 sequence (P00780 106-379)
Experimental: as §1
(§3) Before reacting PEG-subtilisin with other materials it is necessary to fully characterize the activity and stability of the "bio-monomer". Using solubility, IMAC, and HPLC the modified protein was separated into predominantly singly or doubly modified protein fractions. […] Thus, the activities and stabilities noted are average properties for the sample being studied. For comparison to the native protein, unmodified protein was purified from the modification reaction mixture and characterized to some degree.
as §2

[3] = molecular target: T3, Subtilisin Carlsberg, singly modified with PEG monomethacrylate (MW 8,000) (Bacillus licheniformis, UniProt P00780); details: 25% dioxane/75% buffer
T3 construct: purchased Sigma Chemical Co
T3 sequence (P00780 106-379): T1 sequence (P00780 106-379)
Experimental: as §1, §3, §2

[4] = molecular target: T4, Subtilisin Carlsberg, unmodified fraction purified from the PEG modification reaction mixture (Bacillus licheniformis, UniProt P00780)
T4 construct: purchased Sigma Chemical Co
T4 sequence (P00780 106-379): T1 sequence (P00780 106-379)
Experimental: as §1, §3, §2

C[C@H](NC(=O)CCC(=O)O)C(=O)N[C@@H](C)C(=O)N1CCC[C@H]1C(=O)N[C@@H](Cc1ccccc1)C(=O)Nc1ccc([N+](=O)[O-])cc1 [N-succinyl-L-alanyl-L-alanyl-L-prolyl-L-phenylalanyl p-nitroanilide] (Suc-AAPF-pNA)
Vmax ([1]; 25% dioxane/75% buffer): 66.2 ΔA412/sec/mg protein
Vmax ([1]; Tris-HCl buffer (0.1M, pH 8.6)): 108 ΔA412/sec/mg protein
Vmax ([2]; 25% dioxane/75% buffer): 1.8 ΔA412/sec/mg protein
Vmax ([2]; Tris-HCl buffer (0.1M, pH 8.6)): 1.6 ΔA412/sec/mg protein
Vmax [3]: 5.3 ΔA412/sec/mg protein
Vmax ([4]; 25% dioxane/75% buffer): 2.9 ΔA412/sec/mg protein
Vmax ([4]; Tris-HCl buffer (0.1M, pH 8.6)): 2.2 ΔA412/sec/mg protein

Source: patent US5482996A, “Protein-containing polymers and a method of synthesis of protein-containing polymers in organic solvents” (University of Pittsburgh, priority 1993, dated 1996)
